{
  "source": "ChEMBL document CHEMBL3734692",
  "about": "“Design and synthesis of 2-oxindole based multi-targeted inhibitors of PDK1/Akt signaling pathway for the treatment of glioblastoma multiforme” (Eur J Med Chem, 2015)",
  "key": {"[1]": {"molecular_target": "RAC-gamma serine/threonine-protein kinase (Homo sapiens) (UniProt Q9Y243)", "assay": "Inhibition of AKT3 (unknown origin) at 1 uM by selectscreen kinase profiling assay in presence of ATP"}, "[2]": {"molecular_target": "Proto-oncogene tyrosine-protein kinase Src (Homo sapiens) (UniProt P12931)", "assay": "Inhibition of SRC (unknown origin) at 1 uM by selectscreen kinase profiling assay in presence of ATP"}, "[3]": {"assay": "Induction of apoptosis in human ANGM-CSS cells assessed as late apoptotic cells at 1 uM after 7 days by annexin V-FITC/7-AAD dual staining based cell analysis (reference value: 3.39%)", "format": "functional"}, "[4]": {"molecular_target": "Dual specificity mitogen-activated protein kinase kinase 2 (Homo sapiens) (UniProt P36507)", "sequence (P36507 whole entry)": "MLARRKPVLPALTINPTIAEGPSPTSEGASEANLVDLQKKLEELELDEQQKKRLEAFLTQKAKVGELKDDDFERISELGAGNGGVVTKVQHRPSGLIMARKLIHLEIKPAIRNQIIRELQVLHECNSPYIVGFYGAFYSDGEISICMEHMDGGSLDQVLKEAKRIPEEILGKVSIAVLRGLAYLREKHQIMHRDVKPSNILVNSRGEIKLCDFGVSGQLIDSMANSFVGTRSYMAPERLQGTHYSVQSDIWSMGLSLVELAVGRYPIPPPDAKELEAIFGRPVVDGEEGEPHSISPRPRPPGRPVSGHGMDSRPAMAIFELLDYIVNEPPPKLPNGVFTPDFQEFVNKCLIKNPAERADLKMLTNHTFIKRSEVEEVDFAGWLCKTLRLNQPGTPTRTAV", "assay": "Inhibition of MEK2 (unknown origin) at 1 uM by selectscreen kinase profiling assay in presence of ATP"}, "ANGM-CSS [5]": {"test_system": "ANGM-CSS", "assay": "Induction of human GSC differentiation derived from ANGM-CSS cells assessed as up regulation of MAP2 mRNA expression at 1 uM after 7 days by RT-PCR analysis", "format": "functional, cell-based"}, "ANGM-CSS [6]": {"test_system": "ANGM-CSS", "assay": "Antiproliferative activity against human GSC derived from ANGM-CSS cells by MTS assay", "format": "functional, cell-based", "conditions": "TDE = time-dependent effect"}, "[7]": {"molecular_target": "Glycogen synthase kinase-3 alpha (Homo sapiens, UniProt P49840)", "assay": "Inhibition of GSK3alpha (unknown origin) at 1 uM by selectscreen kinase profiling assay in presence of ATP"}, "[8]": {"assay": "Antiproliferative activity against human ANGM-CSS cells assessed as inhibition of cell growth after 72 hrs by WST1 assay", "format": "functional"}, "[9]": {"molecular_target": "CDK7/Cyclin H/MNAT1 (Homo sapiens) (UniProt P51946+P50613+P51948)", "assay": "Inhibition of CDK7/cyclin H/MNAT1 (unknown origin) at 1 uM by selectscreen kinase profiling assay in presence of ATP", "format": "protein-complex assay"}, "[10]": {"molecular_target": "RAC-beta serine/threonine-protein kinase (Homo sapiens) (UniProt P31751)", "assay": "Inhibition of AKT2 (unknown origin) at 1 uM by selectscreen kinase profiling assay in presence of ATP"}, "[11]": {"assay": "Antiproliferative activity against human ANGM-CSS cells assessed as inhibition of cell growth after 144 hrs by WST1 assay", "format": "functional"}, "[12]": {"molecular_target": "Tyrosine-protein kinase ITK/TSK (Homo sapiens) (UniProt Q08881)", "assay": "Inhibition of ITK (unknown origin) at 1 uM by selectscreen kinase profiling assay in presence of ATP"}, "[13]": {"molecular_target": "Tyrosine-protein kinase ABL1 (Homo sapiens) (UniProt P00519)", "sequence (P00519 whole entry)": "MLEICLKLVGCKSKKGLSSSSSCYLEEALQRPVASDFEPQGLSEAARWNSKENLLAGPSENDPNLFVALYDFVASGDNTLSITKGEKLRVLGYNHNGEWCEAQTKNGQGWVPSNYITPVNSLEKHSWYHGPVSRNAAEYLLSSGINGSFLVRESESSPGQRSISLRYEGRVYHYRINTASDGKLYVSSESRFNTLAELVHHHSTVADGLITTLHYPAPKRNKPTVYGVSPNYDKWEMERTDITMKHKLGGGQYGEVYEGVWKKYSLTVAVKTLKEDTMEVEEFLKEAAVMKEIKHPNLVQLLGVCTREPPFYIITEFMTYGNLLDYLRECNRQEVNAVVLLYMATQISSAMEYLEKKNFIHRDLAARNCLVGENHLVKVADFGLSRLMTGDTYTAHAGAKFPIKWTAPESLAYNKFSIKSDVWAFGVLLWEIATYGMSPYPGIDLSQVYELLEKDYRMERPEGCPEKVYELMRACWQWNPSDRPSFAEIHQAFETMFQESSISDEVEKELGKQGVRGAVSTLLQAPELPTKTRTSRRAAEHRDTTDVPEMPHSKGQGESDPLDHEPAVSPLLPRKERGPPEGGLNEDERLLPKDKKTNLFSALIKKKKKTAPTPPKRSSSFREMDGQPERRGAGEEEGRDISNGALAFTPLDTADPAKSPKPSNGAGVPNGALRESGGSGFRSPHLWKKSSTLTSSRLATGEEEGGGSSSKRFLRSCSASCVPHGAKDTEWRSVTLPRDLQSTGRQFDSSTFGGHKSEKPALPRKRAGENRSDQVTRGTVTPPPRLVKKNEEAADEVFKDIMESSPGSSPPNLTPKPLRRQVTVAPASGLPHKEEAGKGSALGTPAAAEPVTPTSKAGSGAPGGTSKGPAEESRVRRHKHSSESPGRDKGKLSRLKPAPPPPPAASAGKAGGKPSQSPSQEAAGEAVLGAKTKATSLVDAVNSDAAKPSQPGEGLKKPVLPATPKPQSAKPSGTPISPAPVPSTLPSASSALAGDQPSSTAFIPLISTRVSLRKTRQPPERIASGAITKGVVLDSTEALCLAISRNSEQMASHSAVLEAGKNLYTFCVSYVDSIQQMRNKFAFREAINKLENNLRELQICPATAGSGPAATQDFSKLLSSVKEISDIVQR", "assay": "Inhibition of ABL1 (unknown origin) at 1 uM by selectscreen kinase profiling assay in presence of ATP"}, "[14]": {"molecular_target": "Glycogen synthase kinase-3 beta (Homo sapiens, UniProt P49841)", "sequence (P49841 whole entry, looked up)": "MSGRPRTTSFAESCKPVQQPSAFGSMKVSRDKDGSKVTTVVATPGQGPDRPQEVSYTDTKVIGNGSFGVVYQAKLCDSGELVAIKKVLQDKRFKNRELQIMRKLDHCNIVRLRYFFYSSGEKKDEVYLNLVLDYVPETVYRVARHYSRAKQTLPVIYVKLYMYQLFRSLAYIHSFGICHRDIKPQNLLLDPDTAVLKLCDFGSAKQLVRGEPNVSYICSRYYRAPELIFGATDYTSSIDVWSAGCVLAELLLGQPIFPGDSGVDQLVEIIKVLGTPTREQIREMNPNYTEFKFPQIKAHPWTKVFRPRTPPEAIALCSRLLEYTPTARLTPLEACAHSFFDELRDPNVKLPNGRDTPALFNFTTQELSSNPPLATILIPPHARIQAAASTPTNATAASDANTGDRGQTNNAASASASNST", "assay": "Inhibition of GSK3beta (unknown origin) at 1 uM by selectscreen kinase profiling assay in presence of ATP"}, "[15]": {"molecular_target": "Serine/threonine-protein kinase Chk1 (Homo sapiens) (UniProt O14757)", "sequence (O14757 whole entry)": "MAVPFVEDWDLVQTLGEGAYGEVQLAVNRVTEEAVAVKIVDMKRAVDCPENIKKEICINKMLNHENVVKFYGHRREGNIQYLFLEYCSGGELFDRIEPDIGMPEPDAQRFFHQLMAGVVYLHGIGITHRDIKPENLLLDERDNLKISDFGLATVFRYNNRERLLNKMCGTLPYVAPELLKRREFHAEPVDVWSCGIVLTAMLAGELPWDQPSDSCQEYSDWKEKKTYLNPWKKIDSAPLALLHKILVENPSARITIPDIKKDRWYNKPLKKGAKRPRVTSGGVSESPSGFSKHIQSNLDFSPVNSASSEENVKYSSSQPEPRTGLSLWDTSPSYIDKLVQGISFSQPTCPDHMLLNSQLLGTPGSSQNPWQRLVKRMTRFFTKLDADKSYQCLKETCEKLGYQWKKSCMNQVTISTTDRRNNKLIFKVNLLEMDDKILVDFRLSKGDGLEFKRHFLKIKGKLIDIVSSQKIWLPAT", "assay": "Inhibition of CHEK1 (unknown origin) at 1 uM by selectscreen kinase profiling assay in presence of ATP"}, "[16]": {"molecular_target": "T1, 3-phosphoinositide-dependent protein kinase 1 (Homo sapiens, UniProt O15530)", "T1 sequence (O15530 whole entry)": "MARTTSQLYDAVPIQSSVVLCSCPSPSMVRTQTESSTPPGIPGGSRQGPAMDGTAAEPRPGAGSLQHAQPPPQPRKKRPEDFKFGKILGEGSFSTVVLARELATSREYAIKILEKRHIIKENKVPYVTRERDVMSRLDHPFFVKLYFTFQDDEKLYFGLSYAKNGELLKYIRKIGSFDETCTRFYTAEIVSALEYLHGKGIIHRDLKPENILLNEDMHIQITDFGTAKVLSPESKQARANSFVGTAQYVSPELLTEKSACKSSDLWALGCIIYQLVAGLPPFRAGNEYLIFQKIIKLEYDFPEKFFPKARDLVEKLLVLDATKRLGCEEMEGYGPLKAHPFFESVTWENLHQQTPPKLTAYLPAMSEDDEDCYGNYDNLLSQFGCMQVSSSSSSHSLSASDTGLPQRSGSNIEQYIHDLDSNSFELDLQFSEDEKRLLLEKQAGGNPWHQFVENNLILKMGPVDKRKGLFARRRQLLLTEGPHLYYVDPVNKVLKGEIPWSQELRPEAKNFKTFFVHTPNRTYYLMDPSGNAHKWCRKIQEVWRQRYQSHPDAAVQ", "assay": "Inhibition of PDK1 (unknown origin) incubated for 1 hr by Z'Lyte assay"}, "[17]": {"assay": "Cell cycle arrest in human GSC derived from ANGM-CSS cells assessed as accumulation at G2/M phase at 1 uM after 7 days by based fluorescent reagent based cell analysis (reference value: 23.5%)", "format": "functional"}, "[18]": {"molecular_target": "Rho-associated protein kinase 1 (Homo sapiens) (UniProt Q13464)", "sequence (Q13464 2-1354 limits assumed)": "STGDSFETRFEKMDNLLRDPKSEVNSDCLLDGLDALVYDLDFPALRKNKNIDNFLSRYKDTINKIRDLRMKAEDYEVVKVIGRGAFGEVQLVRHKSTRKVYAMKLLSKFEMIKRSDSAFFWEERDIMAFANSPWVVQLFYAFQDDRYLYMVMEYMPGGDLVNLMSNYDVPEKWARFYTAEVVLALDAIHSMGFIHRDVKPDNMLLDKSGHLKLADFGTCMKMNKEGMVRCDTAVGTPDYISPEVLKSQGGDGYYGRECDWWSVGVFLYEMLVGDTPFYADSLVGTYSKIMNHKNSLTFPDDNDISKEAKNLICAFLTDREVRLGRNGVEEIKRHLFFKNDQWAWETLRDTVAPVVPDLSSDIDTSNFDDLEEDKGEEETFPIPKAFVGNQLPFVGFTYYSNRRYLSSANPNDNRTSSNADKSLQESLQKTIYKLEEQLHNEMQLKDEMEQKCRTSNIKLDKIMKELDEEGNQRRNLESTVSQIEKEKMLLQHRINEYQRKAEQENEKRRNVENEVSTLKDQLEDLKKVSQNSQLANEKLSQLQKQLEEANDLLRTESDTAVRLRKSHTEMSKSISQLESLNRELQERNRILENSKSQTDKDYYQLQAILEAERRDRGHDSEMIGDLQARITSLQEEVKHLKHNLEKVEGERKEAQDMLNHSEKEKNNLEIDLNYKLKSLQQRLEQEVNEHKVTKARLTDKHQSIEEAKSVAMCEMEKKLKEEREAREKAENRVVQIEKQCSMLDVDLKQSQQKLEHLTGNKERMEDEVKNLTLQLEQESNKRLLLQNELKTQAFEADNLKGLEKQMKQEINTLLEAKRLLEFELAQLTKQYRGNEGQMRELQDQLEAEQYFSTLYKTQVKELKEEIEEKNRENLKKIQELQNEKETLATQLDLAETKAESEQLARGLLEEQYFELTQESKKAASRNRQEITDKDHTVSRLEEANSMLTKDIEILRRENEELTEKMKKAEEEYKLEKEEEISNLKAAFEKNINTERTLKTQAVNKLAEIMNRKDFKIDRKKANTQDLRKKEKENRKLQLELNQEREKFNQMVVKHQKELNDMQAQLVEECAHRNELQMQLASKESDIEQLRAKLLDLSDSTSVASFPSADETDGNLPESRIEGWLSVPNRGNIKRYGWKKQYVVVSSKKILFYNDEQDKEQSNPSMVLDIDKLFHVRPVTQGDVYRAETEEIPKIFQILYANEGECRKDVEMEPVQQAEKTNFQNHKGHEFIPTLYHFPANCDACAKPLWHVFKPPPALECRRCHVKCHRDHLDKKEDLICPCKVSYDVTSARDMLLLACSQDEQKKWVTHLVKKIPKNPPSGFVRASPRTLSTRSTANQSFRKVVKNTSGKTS", "assay": "Inhibition of ROCK1 (unknown origin) at 1 uM by selectscreen kinase profiling assay in presence of ATP"}, "U-118-MG": {"test_system": "U-118-MG", "assay": "Antiproliferative activity against human U118MG cells assessed as inhibition of cell growth after 72 to 144 hrs by WST1 assay", "format": "functional, cell-based"}, "[19]": {"molecular_target": "T2, AMP-activated protein kinase, AMPK (Homo sapiens) (UniProt P54646+O43741+P54619+Q9UGJ0+Q9Y478+Q13131+Q9UGI9)", "assay": "Inhibition of AMPK A2/B1/G1 (unknown origin) at 1 uM by selectscreen kinase profiling assay in presence of ATP", "format": "protein-complex assay"}, "[20]": {"molecular_target": "T2, AMP-activated protein kinase, AMPK (Homo sapiens)", "assay": "Inhibition of AMPK A1/B1/G1 (unknown origin) at 1 uM by selectscreen kinase profiling assay in presence of ATP", "format": "protein-complex assay"}, "[21]": {"molecular_target": "Protein kinase C zeta type (Homo sapiens) (UniProt Q05513)", "sequence (Q05513 whole entry)": "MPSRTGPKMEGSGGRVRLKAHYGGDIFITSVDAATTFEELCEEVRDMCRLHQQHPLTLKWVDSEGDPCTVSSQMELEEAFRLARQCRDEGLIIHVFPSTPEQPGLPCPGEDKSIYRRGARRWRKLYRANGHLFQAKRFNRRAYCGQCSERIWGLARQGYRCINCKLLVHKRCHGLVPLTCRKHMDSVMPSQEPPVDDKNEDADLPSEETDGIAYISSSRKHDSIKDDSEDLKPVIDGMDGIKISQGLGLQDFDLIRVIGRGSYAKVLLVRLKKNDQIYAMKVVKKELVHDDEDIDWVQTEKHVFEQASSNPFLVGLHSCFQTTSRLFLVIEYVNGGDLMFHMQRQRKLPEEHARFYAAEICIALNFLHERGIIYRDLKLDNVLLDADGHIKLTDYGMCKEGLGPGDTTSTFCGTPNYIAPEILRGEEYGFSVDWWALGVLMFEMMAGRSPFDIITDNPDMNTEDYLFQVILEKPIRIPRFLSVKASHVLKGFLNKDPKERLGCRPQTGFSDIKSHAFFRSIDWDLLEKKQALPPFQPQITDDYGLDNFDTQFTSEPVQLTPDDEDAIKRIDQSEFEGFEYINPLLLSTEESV", "assay": "Inhibition of PKCzeta (unknown origin) at 1 uM by selectscreen kinase profiling assay in presence of ATP"}, "[22]": {"assay": "Cell cycle arrest in human GSC derived from ANGM-CSS cells assessed as accumulation at S phase at 1 uM after 7 days by based fluorescent reagent based cell analysis (reference value: 1.9%)", "format": "functional"}, "[23]": {"assay": "Induction of apoptosis in human GSC derived from ANGM-CSS cells assessed as early apoptotic cells at 1 uM after 7 days by annexin V-FITC/7-AAD dual staining based cell analysis (reference value: 3.29%)", "format": "functional"}, "[24]": {"molecular_target": "CDK2/Cyclin A2 (Homo sapiens) (UniProt P24941+P20248)", "assay": "Inhibition of CDK2/cyclin A (unknown origin) at 1 uM by selectscreen kinase profiling assay in presence of ATP", "format": "protein-complex assay"}, "[25]": {"assay": "Antiproliferative activity against human U118MG cells assessed as inhibition of cell growth after 72 hrs by WST1 assay", "format": "functional", "conditions": "U-118-MG"}, "ANGM-CSS [26]": {"test_system": "ANGM-CSS", "assay": "Induction of human GSC differentiation derived from ANGM-CSS cells assessed as up regulation of olig mRNA expression at 1 uM after 7 days by RT-PCR analysis", "format": "functional, cell-based"}, "ANGM-CSS [27]": {"test_system": "ANGM-CSS", "assay": "Induction of human GSC differentiation derived from ANGM-CSS cells assessed as down regulation of CD133 mRNA expression at 1 uM after 7 days by RT-PCR analysis", "format": "functional, cell-based"}, "[28]": {"molecular_target": "Casein kinase II subunit alpha' (Homo sapiens) (UniProt P19784)", "sequence (P19784 whole entry, looked up)": "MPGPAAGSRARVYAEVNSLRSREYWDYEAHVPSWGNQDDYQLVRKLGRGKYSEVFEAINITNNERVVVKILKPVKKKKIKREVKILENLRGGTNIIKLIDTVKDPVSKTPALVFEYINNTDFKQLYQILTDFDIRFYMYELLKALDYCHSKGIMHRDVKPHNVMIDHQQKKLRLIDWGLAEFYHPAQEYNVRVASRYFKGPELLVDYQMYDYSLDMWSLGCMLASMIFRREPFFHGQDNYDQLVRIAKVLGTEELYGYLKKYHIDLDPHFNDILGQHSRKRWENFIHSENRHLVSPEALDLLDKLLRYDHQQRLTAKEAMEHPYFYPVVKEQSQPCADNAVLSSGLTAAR", "assay": "Inhibition of CK2alpha2 (unknown origin) at 1 uM by selectscreen kinase profiling assay in presence of ATP"}},
  "note": "Activity calls are given as the source filed them. The calls are words filed in the database; no cut-off is given here.",
  "data": [
    {"compound": "COc1cc2c(cc1OC)CN(CC(=O)Nc1ccc3c(c1)/C(=C/c1cnc[nH]1)C(=O)N3)CC2", "values": [
      {"measurement": "inhibition", "setting": "[1]", "value": 8, "unit": "%"},
      {"measurement": "inhibition", "setting": "[2]", "value": 27, "unit": "%"},
      {"measurement": "Activity", "setting": "[3]", "value": 11.87, "unit": "%"},
      {"measurement": "inhibition", "setting": "[4]", "value": 37, "unit": "%"},
      {"measurement": "Activity", "setting": "ANGM-CSS [5]", "value": "Active"},
      {"measurement": "inhibition", "setting": "ANGM-CSS [6]", "value": "tde"},
      {"measurement": "inhibition", "setting": "[7]", "value": 59, "unit": "%"},
      {"measurement": "GI50", "setting": "[8]", "value": 7.73, "unit": "µM"},
      {"measurement": "inhibition", "setting": "[9]", "value": -8, "unit": "%"},
      {"measurement": "inhibition", "setting": "[10]", "value": 2, "unit": "%"},
      {"measurement": "GI50", "setting": "[11]", "value": 3.98, "unit": "µM"},
      {"measurement": "inhibition", "setting": "[12]", "value": -2, "unit": "%"},
      {"measurement": "inhibition", "setting": "[13]", "value": 55, "unit": "%"},
      {"measurement": "inhibition", "setting": "[14]", "value": 70, "unit": "%"},
      {"measurement": "inhibition", "setting": "[15]", "value": 61, "unit": "%"},
      {"measurement": "IC50", "setting": "[16]", "value": 0.98, "unit": "µM"},
      {"measurement": "Activity", "setting": "[17]", "value": 27, "unit": "%"},
      {"measurement": "inhibition", "setting": "[18]", "value": 8, "unit": "%"},
      {"measurement": "growth inhibition (GI)", "setting": "U-118-MG", "value": "Dose-dependent effect"},
      {"measurement": "inhibition", "setting": "[19]", "value": 30, "unit": "%"},
      {"measurement": "inhibition", "setting": "[20]", "value": 42, "unit": "%"},
      {"measurement": "inhibition", "setting": "[21]", "value": 0, "unit": "%"},
      {"measurement": "Activity", "setting": "[22]", "value": 1, "unit": "%"},
      {"measurement": "Activity", "setting": "[23]", "value": 12.65, "unit": "%"},
      {"measurement": "inhibition", "setting": "[24]", "value": 30, "unit": "%"},
      {"measurement": "GI50", "setting": "[25]", "value": 14.6, "unit": "µM"},
      {"measurement": "Activity", "setting": "ANGM-CSS [26]", "value": "Active"},
      {"measurement": "Activity", "setting": "ANGM-CSS [27]", "value": "Active"},
      {"measurement": "inhibition", "setting": "[28]", "value": 11, "unit": "%"}
    ]}
  ]
}
